Assay results: patent US9745284B2, “2-pyridyloxy-4-ether orexin receptor antagonists” (MERCK SHARP & DOHME CORP., priority 2013, dated 2017)
pIC50: −log10 of the molar value.

What was measured:
[1] = biological target: human orexin-2 receptor (Homo sapiens (Human), UniProt O43614); assay: FLIPR Ca2+ flux assay, orexin-2 receptor; type: cell-based; details: CHO cells expressing human orexin-2 receptor; agonist 70 pM Ala-6,12 orexin-A; read-out: hOX2R FLIPR IC50
Description: The utility of the compounds in accordance with the present invention as orexin receptor OX1R and/or OX2R antagonists may be readily determined without undue experimentation by methodology well known in the art, including the “FLIPR Ca^2+ Flux Assay” (Okumura et al., Biochem. Biophys. Res. Comm. 280:976-981, 2001). In a typical experiment the OX1 and OX2 receptor antagonistic activity of the compounds of the present invention was determined in accordance with the following experimental method. For intracellular calcium measurements, Chinese hamster ovary (CHO) cells expressing the rat orexin-1 receptor or the human orexin-2 receptor, are grown in Iscove's modified DMEM containing 2 mM L-glutamine, […], 1% hypoxanthine-thymidine supplement, 100 U/ml penicillin, 100 μg/ml streptomycin and 10% heat-inactivated fetal calf serum (FCS). The cells are seeded at 20,000 cells/well into Becton-Dickinson black 384-well clear bottom sterile plates coated with poly-D-lysine. All reagents were from GIBCO-Invitrogen Corp. The seeded plates are incubated overnight at 37° C. and 5% CO2. Ala-6,12 human orexin-A as the agonist is prepared as a 1 mM stock solution in 1% bovine serum albumin (BSA) and diluted in assay buffer (HBSS containing 20 mM HEPES, 0.1% BSA and 2.5 mM probenecid, pH7.4) for use in the assay at a final concentration of 70 pM. Test compounds are prepared as 10 mM stock solution in DMSO, then diluted in 384-well plates, first in DMSO, then assay buffer. On the day of the assay, cells are washed 3 times with 100 μl assay buffer and then incubated for 60 min (37° C., 5% CO2) in 60 μl assay buffer containing 1 μM Fluo-4AM ester, 0.02% pluronic acid, and 1% BSA. The dye loading solution is then aspirated and cells are washed 3 times with 100 μl assay buffer. 30 μl of that same buffer is left in each well. Within the Fluorescent Imaging Plate Reader (FLIPR, Molecular Devices), test compounds are added to the plate in a volume of 25 μl, incubated for 5 min and finally 25 μl of agonist is added. Fluorescence is measured for each well at 1 second intervals for 5 minutes and the height of each fluorescence peak is compared to the height of the fluorescence peak induced by 70 pM Ala-6,12 orexin-A with buffer in place of antagonist. For each antagonist, IC50 value (the concentration of compound needed to inhibit 50% of the agonist response) is determined. Alternatively, compound potency can be assessed by a radioligand binding assay (described in Bergman et. al. Bioorg. Med. Chem. Lett. 2008, 18, 1425-1430) in which the inhibition constant (Ki) is determined in membranes prepared from CHO cells expressing either the OX1 or OX2 receptor. The intrinsic orexin receptor antagonist activity of a compound which may be used in the present invention may be determined by these assays.

[2] = biological target: hOX1R (Homo sapiens, UniProt O43613); assay: FLIPR Ca2+ flux assay, orexin-1 receptor; type: cell-based; details: CHO cells expressing orexin-1 receptor; agonist 70 pM Ala-6,12 orexin-A

human orexin-2 receptor, sequence (O43614 whole entry): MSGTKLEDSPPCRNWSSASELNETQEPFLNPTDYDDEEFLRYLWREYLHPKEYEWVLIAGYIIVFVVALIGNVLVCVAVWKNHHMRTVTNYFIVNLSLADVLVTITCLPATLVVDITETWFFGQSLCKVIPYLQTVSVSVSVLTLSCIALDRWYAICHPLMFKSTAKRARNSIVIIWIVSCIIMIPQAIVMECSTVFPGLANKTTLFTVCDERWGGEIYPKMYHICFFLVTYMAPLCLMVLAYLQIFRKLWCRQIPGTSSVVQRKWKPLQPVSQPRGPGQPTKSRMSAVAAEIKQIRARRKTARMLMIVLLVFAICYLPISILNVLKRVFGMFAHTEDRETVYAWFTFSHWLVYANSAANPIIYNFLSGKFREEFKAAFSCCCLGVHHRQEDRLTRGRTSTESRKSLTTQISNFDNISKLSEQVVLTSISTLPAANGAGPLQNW

Structure (SMILES)	pIC50 [1]	pIC50 [2]
C[C@@H]1CC[C@@H](Oc2cc(OCC(F)(F)F)ccn2)CN1C(=O)c1ccccc1-n1ncnn1 [Example 30, 2-{[(3R,6R)-6-methyl-1-{[2-(2H-tetrazol-2-yl)phenyl]carbonyl}piperidin-3-yl]oxy}-4-(2,2,2-trifluoroethoxy)pyridine]	7.42	5.00
COc1ccnc(O[C@@H]2CC[C@@H](C)N(C(=O)c3ccc(OC)nc3-n3nccn3)C2)c1 [Example 18]	7.02	5.00
COc1ccc(C(=O)N2C[C@H](Oc3cc(OC(C)C)ccn3)CC[C@H]2C)c(-n2nccn2)n1 [Example 25, 6-methoxy-3-{[(2R,5R)-2-methyl-5-{[4-(1-methylethoxy)pyridin-2-yl]oxy}piperidin-1-yl]carbonyl}-2-(2H-1,2,3-triazol-2-yl)pyridine]	6.96	5.00
C[C@@H]1CC[C@@H](Oc2cc(OCC(F)F)ccn2)CN1C(=O)c1ccc(F)cc1-c1ncccn1 [Example 46, 2-(2-{[(2R,5R)-5-{[4-(2,2-difluoroethoxy)pyridin-2-yl]oxy}-2-methylpiperidin-1-yl]carbonyl}-5-fluorophenyl)pyrimidine]	7.20	5.45
COc1ccnc(O[C@@H]2CC[C@@H](C)N(C(=O)c3ccc(OC)cc3-n3nccn3)C2)c1 [Example 20, 4-methoxy-2-{[(3R,6R)-1-{[4-methoxy-2-(2H-1,2,3-triazol-2-yl)phenyl]carbonyl}-6-methylpiperidin-3-yl]oxy}pyridine]	6.94	5.00
CC(C)Oc1ccnc(O[C@@H]2CC[C@@H](C)N(C(=O)c3cc(F)ccc3-n3nccn3)C2)c1 [Example 26, 2-{[(3R,6R)-1-{[5-fluoro-2-(2H-1,2,3-triazol-2-yl)phenyl]carbonyl}-6-methylpiperidin-3-yl]oxy}-4-(1-methylethoxy) pyridine]	7.43	5.61
COc1ccnc(O[C@@H]2CC[C@@H](C)N(C(=O)c3ccc(OC)nc3-c3ccccc3)C2)c1 [Example 15, 6-methoxy-3-({(2R,5R)-5-[(4-methoxypyridin-2-yl)oxy]-2-methylpiperidin-1-yl}carbonyl)-2-phenylpyridine]	7.61	6.13
CCCOc1ccnc(O[C@@H]2CC[C@@H](C)N(C(=O)c3ccccc3-n3nccn3)C2)c1 [Example 43, 2-{[(3R,6R)-6-methyl-1-{[2-(2H-1,2,3-triazol-2-yl)phenyl]carbonyl}piperidin-3-yl]oxy}-4-propoxypyridine]	7.41	5.60
CC(C)Oc1ccnc(O[C@@H]2CC[C@@H](C)N(C(=O)c3ccccc3-n3nccn3)C2)c1 [Example 5, 4-(1-Methylethoxy)-2-{[(3R,6R)-6-methyl-1-{[2-(2H-1,2,3-triazol-2-yl)phenyl]carbonyl}piperidin-3-yl]oxy}pyridine]	7.82	6.17
C[C@@H]1CC[C@@H](Oc2cc(OCC(F)F)ccn2)CN1C(=O)c1ncccc1-n1nccn1 [Example 33, 2-{[(2R,5R)-5-{[4-(2,2-difluoroethoxy)pyridin-2-yl]oxy}-2-methylpiperidin-1-yl]carbonyl}-3-(2H-1,2,3-triazol-2-yl)pyridine]	7.15	< 5.00
COc1ccc(C(=O)N2C[C@H](Oc3cc(OC(C)C)ccn3)CC[C@H]2C)c(-n2nccn2)c1 [Example 24, 2-{[(3R,6R)-1-{[4-methoxy-2-(2H-1,2,3-triazol-2-yl)phenyl]carbonyl}-6-methylpiperidin-3-yl]oxy}-4-(1-methylethoxy) pyridine]	6.87	5.00
COc1ccnc(O[C@@H]2CC[C@@H](C)N(C(=O)c3ccc(F)cc3-n3nccn3)C2)c1 [Example 19, 2-{[(3R,6R)-1-{[4-fluoro-2-(2H-1,2,3-triazol-2-yl)phenyl]carbonyl}-6-methylpiperidin-3-yl]oxy}-4-methoxypyridine]	7.66	5.74
CCOc1ccnc(O[C@@H]2CC[C@@H](C)N(C(=O)c3ccsc3-c3ncccn3)C2)c1 [Example 65, ((2R,5R)-5-(4-Ethoxypyridin-2-yloxy)-2-methylpiperidin-1-yl)(2-(pyrimidin-2-yl)thiophen-3-yl)methanone]	7.59	6.05
CCOc1ccnc(O[C@@H]2CC[C@@H](C)N(C(=O)c3ccsc3-n3nccn3)C2)c1 [Example 62, 4-ethoxy-2-{[(3R,6R)-6-methyl-1-{[2-(2H-1,2,3-triazol-2-yl)thiophen-3-yl]carbonyl}piperidin-3-yl]oxy}pyridine]	7.66	5.93
C[C@@H]1CC[C@@H](Oc2cc(OCF)ccn2)CN1C(=O)c1ccccc1-n1nccn1 [Example 53, (2-(2H-1,2,3-Triazol-2-yl)phenyl)((2R,5R)-5-((4-(fluoromethoxy)pyridin-2-yl)oxy)-2-methylpiperidin-1-yl)methanone]	8.10	6.31
C[C@@H]1CC[C@@H](Oc2cc(OCC(F)F)ccn2)CN1C(=O)c1ccccc1-n1ncnn1 [Example 29, 4-(2,2-difluoroethoxy)-2-{[(3R,6R)-6-methyl-1-{[2-(2H-tetrazol-2-yl)phenyl]carbonyl}piperidin-3-yl]oxy}pyridine]	7.54	5.09
C[C@@H]1CC[C@@H](Oc2cc(OC(F)F)ccn2)CN1C(=O)c1ccccc1-n1nccn1 [Example 52, (2-(2H-1,2,3-Triazol-2-yl)phenyl)((2R,5R)-5-((4-(difluoromethoxy)pyridin-2-yl)oxy)-2-methylpiperidin-1-yl)methanone]	8.40	6.71
C[C@@H]1CC[C@@H](Oc2cc(OC(F)F)ccn2)CN1C(=O)c1cscc1-n1nccn1 [Example 55, 4-(difluoromethoxy)-2-{[(3R,6R)-6-methyl-1-{[4-(2H-1,2,3-triazol-2-yl)thiophen-3-yl]carbonyl}piperidin-3-yl]oxy}pyridine]	7.89	5.75
C[C@@H]1CC[C@@H](Oc2cc(OCC(F)F)ccn2)CN1C(=O)c1ccsc1-c1ncccn1 [Example 64, ((2R,5R)-5-((4-(2,2-Difluoroethoxy)pyridin-2-yl)oxy)-2-methylpiperidin-1-yl)(2-(pyrimidin-2-yl)thiophen-3-yl)methanone]	7.44	5.28
C[C@@H]1CC[C@@H](Oc2cc(OCC(F)(F)F)ccn2)CN1C(=O)c1ccsc1-n1nccn1 [Example 63, 2-{[(3R,6R)-6-methyl-1-{[2-(2H-1,2,3-triazol-2-yl)thiophen-3-yl]carbonyl}piperidin-3-yl]oxy}-4-(2,2,2-trifluoroethoxy) pyridine]	7.26	5.08
COc1ccnc(O[C@@H]2CC[C@@H](C)N(C(=O)c3ccccc3-n3nccn3)C2)c1Br [Example 3, 3-bromo-4-methoxy-2-{[(3R,6R)-6-methyl-1-{[2-(2H-1,2,3-triazol-2-yl)phenyl]carbonyl}piperidin-3-yl]oxy}pyridine]	7.83	6.07
COc1ccnc(O[C@@H]2CC[C@@H](C)N(C(=O)c3c(F)cccc3-n3nccn3)C2)c1 [Example 17, 2-{[(3R,6R)-1-{[2-fluoro-6-(2H-1,2,3-triazol-2-yl)phenyl]carbonyl}-6-methylpiperidin-3-yl]oxy}-4-methoxypyridine]	7.57	5.79
COc1ccnc(O[C@@H]2CC[C@@H](C)N(C(=O)c3ccccc3-n3nccn3)C2)c1C=O [Example 50, 4-Methoxy-2-{[(3R,6R)-6-methyl-1-{[2-(2H-1,2,3-triazol-2-yl)phenyl]carbonyl}piperidin-3-yl]oxy}pyridine-3-carbaldehyde]	7.43	5.17
C[C@@H]1CC[C@@H](Oc2cc(OC3CC3)ccn2)CN1C(=O)c1ccccc1-n1nccn1 [Example 40, 4-(Cyclopropyloxy)-2-{[(3R,6R)-6-methyl-1-{[2-(2H-1,2,3-triazol-2-yl)phenyl]carbonyl}-piperidin-3-yl]oxy}pyridine]	7.82	6.24
CCOc1ccccc1C(=O)N1C[C@H](Oc2cc(OC)ccn2)CC[C@H]1C [Example 14, 2-({(3R,6R)-1-[(2-ethoxyphenyl)carbonyl]-6-methylpiperidin-3-yl}oxy)-4-methoxypyridine]	7.46	5.70
